Reference: US20260027161A1, “BACTERIAL STRAINS FOR TREATING DISEASE” (MICROBA IP PTY LTD, priority 2021, published 2026)

Assays:
[1] = tested on: mild to moderate flares of ulcerative colitis; details: first line therapy; cited from earlier work
[2] = tested on: IL-23-mediated activation of STAT3; assay: IL-23 mediated STAT3 activation, HEK-Blue IL-23 reporter cell line (SEAP); assay type: cell-based, human
From the text: The present inventors next sought to investigate whether bacterial products naturally produced by the gut bacterium I. colisanans MH27, can modulate IL-23 mediated activation of STAT3. The JAK-STAT immune axis is a recognised and validated drug target for IBD (Salas et al., 2020) and other diseases (McLornan et al., 2021) with JAK-STAT pathway signalling targeted by several approved IBD therapeutics including anti-IL-23 antibodies (e.g., Ustekinumab) and small molecule inhibitors (e.g., tofacitinib) (Hu et al., 2021). As STAT3 suppression can reduce damaging inflammation, I. colisanans MH27 and/or its bioactives could potentially be used as novel immunoregulatory therapies for IBD and other diseases. The present inventors therefore examined whether I. colisanans MH27 can suppress IL-23-mediated activation of STAT3 using the HEK-Blue™ IL-23 reporter cell line. […]
IL-23-mediated STAT3 activity was assessed using the HEK Blue IL-23 cell line (Invivogen). […] SEAP is secreted into the medium and the extent of SEAP expression can be quantified using QUANTI-Blue solution. […]
SEAP production was quantified using QUANTI-BIue™ solution and recorded as optical density (OD) at 630 nm using a PHERAstar FS plate reader (BMG Labtech). […]

[3] = tested on: ZO1 expression in T84 cells; assay: IFNγ-mediated loss of ZO1 expression in T84 cells (immunofluorescence); assay type: cell-based, human; details: pre-treatment with 1 mM metabolite for 18 hours, IFNγ 48 hours
[4] = tested on: IL-6 mediated activation of STAT3; assay: IL-6 mediated STAT3 activation, HEK-Blue IL-6 reporter cell line (SEAP); assay type: cell-based, human; details: control inhibitor, 10 μM
From the text: (§1) Increased levels of the pro-inflammatory cytokine IL-6 and signalling via its receptor IL-6R is associated with IBD pathogenesis. […] These effects are mediated by IL-6 receptor binding which causes JAK kinase activation and STAT3 dimerization in combination with activation of MAPK/ERK and other downstream kinases. Here, we examined whether I. colisanans MH27-1 and MH27-2 can suppress IL-6 classical and trans signalling mediated activation of STAT3 using the HEK-Blue™ IL-6 reporter cell line. The HEK-Blue™ IL-6 reporter cell line constitutively expresses the human IL-6 receptor and binding of IL-6 to the receptor triggers expression of a STAT3-responsive SEAP reporter. […] Additionally, I. colisanans MH27-2 suppressed IL-6 trans signalling mediated activation of STAT3 (FIG. 6G).
(§2) To assess IL-6 and IL-6/IL-6R-mediated STAT3 suppressive activity, three independent colonies were inoculated and grown until early stationary phase. […]
(§3) IL-6- and IL-6/IL-6R mediated STAT3 activity was assessed using the HEK Blue IL-6 cell line (Invivogen). […] After 24 hours, the STAT3 regulated SEAP reporter activity was assessed using Quanti Blue solution as recommended by the manufacturer (Invivogen). […] Cytotoxicity was assessed using the CellTiter-Glo® 2.0 Cell Viability Assay (Promega, Australia) as recommended by the manufacturer.

[5] = tested on: IL-6 trans signalling mediated activation of STAT3; assay: IL-6/IL-6R trans signalling mediated STAT3 activation, HEK-Blue IL-6 reporter cell line; assay type: cell-based, human; details: control inhibitor, 10 μM
From the text: as §1, §2, §3

[6] = tested on: DSS induced murine colitis; assay: Acute model of DSS induced murine colitis, prophylactic model; assay type: in vivo, C57BL/6 female mice
From the text: The present inventors hypothesised that the big-data approach could be used to identify novel candidate live biotherapeutics for inflammatory bowel disease. We therefore tested the therapeutic efficacy of I. colisanans MH27-1 in an acute model of DSS induced murine colitis (FIG. 4A) as this is a well-documented model of epithelial injury and repair. […] As expected, prednisone exacerbated the DSS induced weight loss (Yamamoto, 2013), however DSS induced weight loss was ameliorated by treatment with I. colisanans MH27-1 or F. prausnitzii A2-165 (FIG. 4B).
I. colisanans strains were grown to early stationary phase in PYG or YG/V. F. prausnitzii was grown in TY medium. The cell density of the individual cultures was calculated using a Helber Counting Chamber. To prepare the bacterial gavage solutions, individual cultures were centrifuged under a layer of sterile heavy mineral oil at 5,000 g for 10 minutes and the cell-free supernatant was then discarded. The cell pellets were washed in 1.5 ml of sterile anaerobic buffered diluent (38 ml/L each of salt solutions 2 & 3 (McSweeney, 2005), 1 ml/L of 0.1% (w/v) resazurin solution, 1 g/L L-cysteine) and then centrifuged again. […]
For the prophylactic model, six-week-old C57BL/6 female mice purchased from Animal Resources Centres (Western Australia, Australia) were randomised and then co-housed for 7 days prior to experimentation. […] Body weights and stool consistency were recorded daily. […]
Animals were examined with a small animal gastrointestinal endoscope (Karl Storz Endoskope, Tuttlingen, Germany) on days −1, 2 and 6 to assess the extent of colon mucosal inflammation (Marks, 2015; and Liu, 2019). […] To grade colitis severity, the extent of inflammation and epithelial injury in the tissue sections were graded semi-quantitatively using an established scoring system (Table 6). The samples were then randomised and subsequently scored in a blinded by a trained gastrointestinal pathologist.

DSS colitis = assay: Acute mouse model of DSS colitis, therapeutic model (I. colisanans MH27-2); assay type: in vivo, female C57BL/6 mice; details: 2.5% DSS, daily treatment Day 4 to Day 10
From the text: The therapeutic efficacy of I. colisanans MH27-2 in an acute mouse model of DSS colitis was examined, with prednisone acting as a positive control drug.
For the therapeutic model, groups of 10 or 20 female C57BL/6 mice were used. All animals, except those in the healthy group, were given 2.5% dextran sodium sulfate (DSS) in the drinking water for 6 days total (Day 0 to Day 5). DSS was then withdrawn and replaced with normal drinking water for a further 5 days (Day 6 to Day 10). For the treatments, mice were given once daily oral gavage of 200 μL of I. colisanans MH27-2 at a dose of 2×10^8 viable cells per day, or vehicle consisting of sterile glycerol and phosphate buffered salt solution. The positive control drug prednisone was similarly administered via oral gavage at a dose of 2 mg/kg per day. Treatments started on Day 4 and were given for 7 consecutive days until Day 10. Animals were sacrificed on Day 10 approximately 4 hours after the final treatment. Colon was harvested, rinsed, weighed, photographed, cut longitudinally. Colon tissue was fixed in 4% formalin and kept in 70% ethanol for histopathology using the Swiss-roll method.

[7] = DSS treated mice, colon histology

Nc1ccc(O)c(C(=O)O)c1 [Mesalmine]
response rates [1]: 40%-70%

O=C1NC(Cc2ccccc2)C(=O)N2CCCC12 (centres unmarked) [cyclo(-Phe-Pro)]
IL-23 mediated activation of STAT3 ([2]; pure metabolite, relative to the vehicle control): suppressed

O=C(O)C=Cc1c[nH]c2ccccc12 [IAyA, indole-3-acrylic acid]
IFNγ-induced reduction in ZO1 expression [3]: significantly ameliorated

C[C@@H]1CCN(C(=O)CC#N)C[C@@H]1N(C)c1ncnc2[nH]ccc12 [tofacitinib]
IL-6 mediated activation of STAT3 [4]: fully prevented
IL-6/IL-6R mediated activation of STAT3 [5]: fully prevented
IL-23 mediated activation of STAT3 ([2]; control inhibitor, 5 μM): fully prevented

O=C(O)CCc1c[nH]c2ccccc12 [IPA, indole-3-proprionic acid]
IFNγ-induced reduction in ZO1 expression [3]: significantly ameliorated

C[C@]12C=CC(=O)C=C1CC[C@@H]1[C@@H]2C(=O)C[C@@]2(C)[C@H]1CC[C@]2(O)C(=O)CO [prednisone]
DSS induced weight loss (body weight) ([6]; 3.5% DSS, daily treatment, compared to DSS+vehicle): exacerbated
disease pathology (histopathological score) [6, 7]: significant improvement in disease pathology
epithelial injury [6, 7]: ameliorated
histological evidence of colitis (DSS colitis): ameliorated
